Experiment: MTT cytotoxicity assay (Example 4)
Type: cell-based
Settings: human; HEK/MRP7; alone; read-out: IC50 of paclitaxel
Protocol: The MRP7 cDNA was generously provided by Dr. Gary Kruh (University of Illinois, Chicago, Ill.) and inserted into the pcDNA3.1 expression vector. […] Individual colonies were selected in medium containing G418 (1 mg/ml) and cultured for further analysis.
MTT colorimetric assay was performed to analyze the drug sensitivity as previously described (Shi et al. (2007) Cancer Res. 67:11012-20). HEK293-pcDNA3.1 and HEK/MRP7 cells were seeded into 96-well plates in triplicate at 6000 cells/well.
After drug incubation of 68 h, 20 μl MTT solution (4 mg/ml) was added into each well. […] The Bliss method was used to calculate the IC50 values according to survival curves.

SMILES: CC(=O)O[C@H]1C(=O)[C@@]2(C)[C@H]([C@H](OC(=O)c3ccccc3)[C@]3(O)C[C@H](OC(=O)[C@H](O)[C@@H](NC(=O)c4ccccc4)c4ccccc4)C(C)=C1C3(C)C)[C@]1(OC(C)=O)CO[C@@H]1C[C@@H]2O [Paclitaxel, paclitaxel]
- IC50 at 68 h: 107 ± 11.2 nM
